Experimental data taken from paper PMC3234597, “Two Panels of Steroid Receptor Luciferase Reporter Cell Lines for Compound Profiling” (Combinatorial Chemistry & High Throughput Screening, 2011).
pEC50, pIC50: −log10 of the molar value. Like-named read-outs stand apart in the source and are kept apart here.

Tests used:
Assay type in all cases: cell-based
[1] = target: T1, human GR (full-length) (Homo sapiens, UniProt P04150); assay: U2OS-GR/3xGRE luciferase reporter cell line (full-length receptor); settings: for Log EC50: agonist mode, 20 h, log10 of molar EC50, mean ± SEM; for Log EC50 / Log IC50: GR/3xGRE; for Log IC50: antagonist mode, in the presence of 5 nM dexamethasone, log10 of molar IC50, mean ± SEM; for EC50: read-out: Log EC50 (converted)
T1 construct: expression vectors encoding full-length steroid receptors: pcDNA3-hAR and pcDNA3-hGR; host or cells: U2OS
T1 sequence (P04150 1-777): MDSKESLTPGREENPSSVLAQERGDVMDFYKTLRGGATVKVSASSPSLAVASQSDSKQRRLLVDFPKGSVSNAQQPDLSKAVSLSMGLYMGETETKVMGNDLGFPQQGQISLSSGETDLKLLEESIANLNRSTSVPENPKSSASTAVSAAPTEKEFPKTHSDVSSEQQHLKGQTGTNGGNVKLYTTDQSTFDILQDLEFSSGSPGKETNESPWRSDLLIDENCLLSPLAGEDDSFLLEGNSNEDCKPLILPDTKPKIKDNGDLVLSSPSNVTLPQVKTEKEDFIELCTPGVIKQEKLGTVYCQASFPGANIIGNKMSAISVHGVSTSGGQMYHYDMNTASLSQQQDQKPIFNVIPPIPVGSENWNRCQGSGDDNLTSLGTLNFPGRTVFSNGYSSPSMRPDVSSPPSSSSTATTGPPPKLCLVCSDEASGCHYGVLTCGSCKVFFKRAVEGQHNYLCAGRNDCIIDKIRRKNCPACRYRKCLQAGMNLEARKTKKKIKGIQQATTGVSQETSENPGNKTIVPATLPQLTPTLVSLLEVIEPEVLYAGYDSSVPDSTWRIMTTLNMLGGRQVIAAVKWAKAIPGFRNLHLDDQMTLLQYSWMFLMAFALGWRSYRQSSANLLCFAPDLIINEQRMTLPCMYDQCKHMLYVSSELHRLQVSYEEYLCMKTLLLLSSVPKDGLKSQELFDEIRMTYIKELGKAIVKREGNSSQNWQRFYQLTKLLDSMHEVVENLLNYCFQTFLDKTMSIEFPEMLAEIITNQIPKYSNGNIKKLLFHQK

[2] = target: T2, PR-LBD fused to Gal4-DBD (Homo sapiens, UniProt P06401); assay: U2OS-PR-LBD/9xGal4UAS luciferase reporter cell line; settings: for Log EC50: agonist mode, 20 h, log10 of molar EC50, mean ± SEM; for Log EC50 / Log IC50 / IC50: PR-LBD/9xGal4UAS; for Log IC50 / IC50: antagonist mode, log10 of molar IC50, mean ± SEM; for IC50: read-out: Log IC50 (converted); for EC50: read-out: Log EC50 (converted)
T2 construct: PR-LBD region was PCR amplified using the following primer combination; host or cells: U2OS
T2 sequence (P06401 679-913 limits assumed): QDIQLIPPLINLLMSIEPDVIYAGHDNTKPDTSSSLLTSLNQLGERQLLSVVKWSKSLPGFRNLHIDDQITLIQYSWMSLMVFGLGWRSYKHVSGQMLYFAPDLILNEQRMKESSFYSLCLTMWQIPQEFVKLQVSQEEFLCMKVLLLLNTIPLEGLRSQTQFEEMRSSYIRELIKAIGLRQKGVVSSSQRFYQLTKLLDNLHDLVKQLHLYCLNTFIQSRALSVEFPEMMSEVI

[3] = target: T3, human AR (full-length) (Homo sapiens, UniProt P10275); assay: U2OS-AR/3xGRE luciferase reporter cell line (full-length receptor); settings: for Log EC50: agonist mode, 20 h, log10 of molar EC50, mean ± SEM; for Log EC50 / Log IC50: AR/3xGRE; for Log IC50: antagonist mode, in the presence of 0.05 nM dihydrotestosterone, log10 of molar IC50, mean ± SEM
T3 construct: expression vectors encoding full-length steroid receptors: pcDNA3-hAR and pcDNA3-hGR; host or cells: U2OS
T3 sequence (P10275 1-920): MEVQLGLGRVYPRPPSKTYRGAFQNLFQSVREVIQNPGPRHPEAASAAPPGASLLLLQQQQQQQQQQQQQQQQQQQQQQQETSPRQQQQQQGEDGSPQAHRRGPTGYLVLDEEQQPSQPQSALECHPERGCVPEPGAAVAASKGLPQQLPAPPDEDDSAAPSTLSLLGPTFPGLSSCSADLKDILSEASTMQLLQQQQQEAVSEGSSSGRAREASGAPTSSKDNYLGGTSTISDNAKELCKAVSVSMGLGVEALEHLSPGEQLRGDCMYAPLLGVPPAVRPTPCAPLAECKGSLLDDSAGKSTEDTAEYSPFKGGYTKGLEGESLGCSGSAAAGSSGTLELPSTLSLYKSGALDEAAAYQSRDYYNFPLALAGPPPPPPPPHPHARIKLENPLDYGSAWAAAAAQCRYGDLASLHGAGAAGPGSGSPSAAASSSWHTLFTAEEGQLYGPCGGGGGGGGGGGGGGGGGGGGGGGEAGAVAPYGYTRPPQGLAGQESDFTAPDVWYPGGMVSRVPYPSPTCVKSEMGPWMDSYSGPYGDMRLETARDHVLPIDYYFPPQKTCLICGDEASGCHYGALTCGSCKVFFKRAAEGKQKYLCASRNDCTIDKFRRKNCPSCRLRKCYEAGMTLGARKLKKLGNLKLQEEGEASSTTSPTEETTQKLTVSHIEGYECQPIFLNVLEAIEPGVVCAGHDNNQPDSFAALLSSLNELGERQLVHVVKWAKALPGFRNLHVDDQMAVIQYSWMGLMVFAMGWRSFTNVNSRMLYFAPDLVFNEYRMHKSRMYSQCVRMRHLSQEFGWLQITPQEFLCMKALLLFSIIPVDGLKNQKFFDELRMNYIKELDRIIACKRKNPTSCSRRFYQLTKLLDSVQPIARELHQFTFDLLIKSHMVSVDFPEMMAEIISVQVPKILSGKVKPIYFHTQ

[4] = target: T4, ERβ-LBD fused to Gal4-DBD (Homo sapiens, UniProt Q92731); assay: U2OS-ERβ-LBD/9xGal4UAS luciferase reporter cell line; settings: for EC50: read-out: Log EC50 (converted)
T4 construct: region comprising ERβ-LBD and a piece of the hinge region; expressed in transfected cells; host or cells: U2OS
T4 sequence (Q92731 264-498 limits assumed): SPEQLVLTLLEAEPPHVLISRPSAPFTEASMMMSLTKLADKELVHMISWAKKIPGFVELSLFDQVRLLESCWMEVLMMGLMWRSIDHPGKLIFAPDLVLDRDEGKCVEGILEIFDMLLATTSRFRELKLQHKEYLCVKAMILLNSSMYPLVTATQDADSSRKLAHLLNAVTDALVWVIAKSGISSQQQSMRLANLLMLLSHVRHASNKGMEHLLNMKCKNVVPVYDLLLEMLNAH

[5] = target: T5, human ERα (full-length) (Homo sapiens, UniProt P03372, G400V); assay: U2OS-ERα/3xERE luciferase reporter cell line (full-length receptor); settings: for luciferase activity in ERα reporter cell lines: even at 10 μM concentration
T5 sequence (P03372 1-595 G400V): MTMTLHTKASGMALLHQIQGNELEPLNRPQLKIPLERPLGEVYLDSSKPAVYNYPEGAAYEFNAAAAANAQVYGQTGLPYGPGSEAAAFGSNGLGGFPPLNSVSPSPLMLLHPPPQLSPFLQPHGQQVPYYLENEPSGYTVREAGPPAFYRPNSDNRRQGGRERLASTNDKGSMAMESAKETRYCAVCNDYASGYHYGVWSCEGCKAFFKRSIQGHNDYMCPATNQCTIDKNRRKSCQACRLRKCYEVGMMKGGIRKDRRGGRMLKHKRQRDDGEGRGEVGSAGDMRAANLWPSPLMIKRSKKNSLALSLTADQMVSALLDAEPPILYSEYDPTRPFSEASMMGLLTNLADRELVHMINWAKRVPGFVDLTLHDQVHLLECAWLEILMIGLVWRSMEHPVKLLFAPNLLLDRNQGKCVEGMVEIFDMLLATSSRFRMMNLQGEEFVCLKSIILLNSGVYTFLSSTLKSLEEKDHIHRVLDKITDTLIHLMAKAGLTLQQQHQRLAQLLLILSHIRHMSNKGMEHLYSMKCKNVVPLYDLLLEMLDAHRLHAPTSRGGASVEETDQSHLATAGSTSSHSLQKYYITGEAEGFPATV

Compound	Log EC50 [2]	Log IC50 [2]	EC50 [1]	IC50 [2]	EC50 [2]	EC50 [4]	pEC50 [3]	pEC50 [5]	also measured
C[C@]12CC[C@@H]3c4ccc(O)cc4C[C@@H](CCCCCCCCC[S+]([O-])CCCC(F)(F)C(F)(F)F)[C@H]3[C@@H]1CC[C@@H]2O (some centres unmarked) [ICI 182.780]	> -5.00 M	> -5.00 M							Log EC50 [1]: > -5.00 M; Log IC50 [1]: > -5.00 M; Log EC50 [3]: > -5.00 M; Log IC50 [3]: > -5.00 M
CCC(=O)[C@@]1(C)CC[C@H]2[C@@H]3CCC4=CC(=O)CCC4=C3CC[C@@]21C [Promegestone (R5020), promegestone]			> 3.16 µM	> 10 µM	0.0129 nM	> 10 µM	< 5.00	< 5.00	
C#C[C@]1(O)CC[C@H]2[C@@H]3CCC4=Cc5oncc5C[C@]4(C)[C@H]3CC[C@@]21C [Danazol, danazol]			> 10 µM	0.692 µM	91.2 nM	> 10 µM		5.36	
C[C@H]1C[C@H]2[C@@H]3CCC4=CC(=O)C=C[C@]4(C)[C@@]3(Cl)[C@@H](O)C[C@]2(C)[C@@]1(O)C(=O)CO [Beclomethasone, beclomethasone]	-5.20 ± 0.05 M	> -5.00 M							luciferase activity in ERα reporter cell lines [5]: did not find any sign of luciferase activity; Log EC50 ([5]; agonist mode, ERα/3xERE, 20 h, value is log10 of molar EC50, mean ± SEM): > -5.00 M; Log IC50 ([5]; antagonist mode, ERα/3xERE, in the presence of 1 nM E2, log10 of molar IC50, mean ± SEM): > -5.00 M
CC[C@@H]1Cc2cc(O)ccc2C2=C1c1ccc(O)cc1C[C@H]2CC (relative stereo) [R.R-THC, (R,R)-cis-diethyltetrahydro-2,8-chrysenediol]	> -5.00 M	-5.52 ± 0.70 M							Log EC50 [1]: > -5.00 M; Log IC50 [1]: > -5.00 M; Log EC50 ([4]; agonist mode, ERβ-LBD/9xGal4UAS, 20 h, log10 of molar EC50, mean ± SEM): > -5.00 M; Log IC50 ([4]; antagonist mode, ERβ-LBD/9xGal4UAS, in the presence of 5 nM E2, log10 of molar IC50, mean ± SEM): -7.39 ± 0.15 M; Log EC50 [3]: > -5.00 M; Log IC50 [3]: -5.26 ± 0.28 M
O=c1c(-c2ccc(O)cc2)coc2cc(O)cc(O)c12 [Genistein, genistein]							< 5.00		pEC50 [1]: < 5.00; pEC50 [2]: < 5.00; pIC50 [2]: < 5.00
C[C@]12C[C@H](O)[C@H]3[C@@H](CCC4=CC(=O)CC[C@@]43C)[C@@H]1CC[C@@H]2C(=O)CO [Corticosterone, corticosterone]			0.00589 µM	> 10 µM	72.4 nM	> 10 µM		< 5.00	
CCCc1c(-c2ccc(O)cc2)nn(-c2ccc(O)cc2)c1-c1ccc(O)cc1 [PPT, propyl pyrazole triol]			> 10 µM	> 10 µM	4270 nM	> 10 µM	< 5.00	8.77	
C[C@]12CCC(=O)C=C1CC[C@@H]1[C@@H]2[C@@H](O)C[C@]2(C=O)[C@@H](C(=O)CO)CC[C@@H]12 [Aldosterone, aldosterone]			0.0302 µM	3.72 µM	1120 nM	> 10 µM	< 5.00	< 5.00	
C[C@]12C=CC(=O)C=C1CC[C@H]1[C@@H]3C[C@@H](O)[C@](O)(C(=O)CO)[C@@]3(C)C[C@H](O)[C@@]12F [Triamcinolone, triamcinolone]			0.00468 µM	> 10 µM	58.9 nM			< 5.00	luciferase activity in ERα reporter cell lines [5]: did not find any sign of luciferase activity
